Results: ChEMBL document CHEMBL3885881, “DrugMatrix”

Species: Rattus norvegicus
Assay: DrugMatrix - Regimen: Daily Repeat
Type: toxicity, organism-based, Sprague-Dawley
Set-up: regimen Daily Repeat, gender Male, age 6-8 weeks
Details: in vivo, po, route oral GAVAGE, […]; for ABSOLUTE BASOPHIL / ABSOLUTE EOSINOPHIL / ABSOLUTE LYMPHOCYTE / ABSOLUTE MONOCYTE / ABSOLUTE SEGMENTED NEUTROPHIL / BASOPHIL / EOSINOPHIL / ERYTHROCYTE COUNT / HEMATOCRIT / HEMOGLOBIN / LEUKOCYTE COUNT / LYMPHOCYTE / MEAN CORPUSCULAR HEMOGLOBIN / MEAN CORPUSCULAR HEMOGLOBIN CONCENTRATION / MEAN CORPUSCULAR VOLUME / MONOCYTE / NEUTROPHIL / NUCLEATED RED BLOOD CELLS / PLATELET COUNT: tissue Blood; for ALANINE AMINOTRANSFERASE / ALBUMIN / ALKALINE PHOSPHATASE / ASPARTATE AMINOTRANSFERASE / BLOOD UREA NITROGEN / CARBON DIOXIDE / CHLORIDE / CHOLESTEROL / CREATINE PHOSPHOKINASE / CREATININE / GLUCOSE / LACTATE DEHYDROGENASE / LIPASE / PHOSPHORUS / POTASSIUM / SODIUM / TOTAL BILIRUBIN / TOTAL PROTEIN / URIC ACID: tissue Plasma
[1] = 0 mg/kg, 72 h, dose level Control, time 3 day
[2] = 0 mg/kg, 120 h, dose level Control, time 5 day
[3] = 10 mg/kg, 72 h, dose level Low, time 3 day

With `COc1cc(N)c(Cl)cc1C(=O)NC1CCN(CCCOc2ccc(F)cc2)CC1OC` (centres undefined) [CISAPRIDE] as the compound, how does the “ABSOLUTE BASOPHIL” value [1] read?
The value was 0 CELLS/uL.

And the “ABSOLUTE EOSINOPHIL” value [1]?
Its value is 13.67 CELLS/uL.

What about the “ABSOLUTE LYMPHOCYTE” value [1] of the same compound?
Its value is 10069.5 CELLS/uL.

And the “ABSOLUTE MONOCYTE” value [1]?
Its value is 50 CELLS/uL.

What about the “ABSOLUTE SEGMENTED NEUTROPHIL” value [1] of the same compound?
The value was 516.83 CELLS/uL.

And the BASOPHIL [1]?
The BASOPHIL was 0%.

What about the EOSINOPHIL [1] of the same compound?
The EOSINOPHIL was 0.17%.

And the “ERYTHROCYTE COUNT” value [1]?
Its value is 5.44 x10E6/uL.

What about the HEMATOCRIT [1] of the same compound?
The HEMATOCRIT was 33.88%.

What about the HEMOGLOBIN [1] of the same compound?
Its HEMOGLOBIN is 13.23 G/DL.

What about the “LEUKOCYTE COUNT” value [1] of the same compound?
The value was 10.65 x10E3/uL.

What about the LYMPHOCYTE [1] of the same compound?
Its LYMPHOCYTE is 94.67%.

What about the “MEAN CORPUSCULAR HEMOGLOBIN” value [1] of the same compound?
Its value is 24.37 pg.

And the “MEAN CORPUSCULAR HEMOGLOBIN CONCENTRATION” value [1]?
Its value is 39.05 G/DL.

And the “MEAN CORPUSCULAR VOLUME” value [1]?
The value was 62.38 fL.

What about the MONOCYTE [1] of the same compound?
The MONOCYTE was 0.67%.

And the NEUTROPHIL [1]?
Its NEUTROPHIL is 4.5%.

What about the “NUCLEATED RED BLOOD CELLS” value [1] of the same compound?
Its value is 0.33 /100WBC.

And the “PLATELET COUNT” value [1]?
Its value is 414.5 x10E3/uL.

What about the “ALANINE AMINOTRANSFERASE” value [1] of the same compound?
The value was 72 u/L.

What about the ALBUMIN [1] of the same compound?
Its ALBUMIN is 3.75 G/DL.

What about the “ALKALINE PHOSPHATASE” value [1] of the same compound?
Its value is 375 u/L.

What about the “ASPARTATE AMINOTRANSFERASE” value [1] of the same compound?
Its value is 87.5 u/L.

And the “BLOOD UREA NITROGEN” value [1]?
The value was 14 mg/dL.

And the “CARBON DIOXIDE” value [1]?
Its value is 27.5 mmol/L.

And the CHLORIDE [1]?
The CHLORIDE was 95.83 MEQ/L.

What about the CHOLESTEROL [1] of the same compound?
The CHOLESTEROL was 68.5 mg/dL.

And the “CREATINE PHOSPHOKINASE” value [1]?
The value was 284.33 u/L.

What about the CREATININE [1] of the same compound?
Its CREATININE is 0.16 mg/dL.

And the GLUCOSE [1]?
Its GLUCOSE is 156.67 mg/dL.

What about the “LACTATE DEHYDROGENASE” value [1] of the same compound?
Its value is 101.83 u/L.

What about the LIPASE [1] of the same compound?
Its LIPASE is 9.67 u/L.

What about the PHOSPHORUS [1] of the same compound?
The PHOSPHORUS was 10.33 mg/dL.

And the POTASSIUM [1]?
The POTASSIUM was 5.22 MEQ/L.

What about the SODIUM [1] of the same compound?
Its SODIUM is 137.67 MEQ/L.

What about the “TOTAL BILIRUBIN” value [1] of the same compound?
The value was 0.13 mg/dL.

And the “TOTAL PROTEIN” value [1]?
The value was 5.43 G/DL.

And the “URIC ACID” value [1]?
Its value is 0.8 mg/dL.

What about the “ABSOLUTE BASOPHIL” value [2] of the same compound?
Its value is 0 CELLS/uL.

What about the “ABSOLUTE EOSINOPHIL” value [2] of the same compound?
The value was 20.67 CELLS/uL.

What about the “ABSOLUTE LYMPHOCYTE” value [2] of the same compound?
Its value is 11518.33 CELLS/uL.

And the “ABSOLUTE MONOCYTE” value [2]?
Its value is 47 CELLS/uL.

And the “ABSOLUTE SEGMENTED NEUTROPHIL” value [2]?
The value was 614 CELLS/uL.

What about the BASOPHIL [2] of the same compound?
The BASOPHIL was 0%.

What about the EOSINOPHIL [2] of the same compound?
The EOSINOPHIL was 0.17%.

And the “ERYTHROCYTE COUNT” value [2]?
The value was 5.61 x10E6/uL.

What about the HEMATOCRIT [2] of the same compound?
Its HEMATOCRIT is 34.25%.

What about the HEMOGLOBIN [2] of the same compound?
Its HEMOGLOBIN is 13.38 G/DL.

What about the “LEUKOCYTE COUNT” value [2] of the same compound?
Its value is 12.2 x10E3/uL.

And the LYMPHOCYTE [2]?
Its LYMPHOCYTE is 94.33%.

And the “MEAN CORPUSCULAR HEMOGLOBIN” value [2]?
Its value is 23.83 pg.

And the “MEAN CORPUSCULAR HEMOGLOBIN CONCENTRATION” value [2]?
The value was 39.08 G/DL.

And the “MEAN CORPUSCULAR VOLUME” value [2]?
Its value is 61.03 fL.

What about the MONOCYTE [2] of the same compound?
Its MONOCYTE is 0.33%.

What about the NEUTROPHIL [2] of the same compound?
Its NEUTROPHIL is 5.17%.

What about the “NUCLEATED RED BLOOD CELLS” value [2] of the same compound?
The value was 0 /100WBC.

And the “PLATELET COUNT” value [2]?
Its value is 941.83 x10E3/uL.

And the “ALANINE AMINOTRANSFERASE” value [2]?
The value was 68.83 u/L.

What about the ALBUMIN [2] of the same compound?
Its ALBUMIN is 4.12 G/DL.

And the “ALKALINE PHOSPHATASE” value [2]?
The value was 492.67 u/L.

And the “ASPARTATE AMINOTRANSFERASE” value [2]?
The value was 83.33 u/L.

What about the “BLOOD UREA NITROGEN” value [2] of the same compound?
The value was 14 mg/dL.

What about the “CARBON DIOXIDE” value [2] of the same compound?
The value was 37 mmol/L.

And the CHLORIDE [2]?
Its CHLORIDE is 98.67 MEQ/L.

And the CHOLESTEROL [2]?
The CHOLESTEROL was 56.5 mg/dL.

What about the “CREATINE PHOSPHOKINASE” value [2] of the same compound?
Its value is 167.33 u/L.

And the CREATININE [2]?
The CREATININE was 0.17 mg/dL.

What about the GLUCOSE [2] of the same compound?
The GLUCOSE was 157.5 mg/dL.

What about the “LACTATE DEHYDROGENASE” value [2] of the same compound?
The value was 104.83 u/L.

What about the LIPASE [2] of the same compound?
Its LIPASE is 10 u/L.

What about the PHOSPHORUS [2] of the same compound?
Its PHOSPHORUS is 10.43 mg/dL.

What about the POTASSIUM [2] of the same compound?
Its POTASSIUM is 5.46 MEQ/L.

And the SODIUM [2]?
Its SODIUM is 143.87 MEQ/L.

And the “TOTAL BILIRUBIN” value [2]?
Its value is 0.17 mg/dL.

And the “TOTAL PROTEIN” value [2]?
The value was 5.72 G/DL.

And the “URIC ACID” value [2]?
The value was 0.85 mg/dL.

What about the “ABSOLUTE BASOPHIL” value [3] of the same compound?
The value was 0 CELLS/uL.

And the “ABSOLUTE EOSINOPHIL” value [3]?
Its value is 28.67 CELLS/uL.

What about the “ABSOLUTE LYMPHOCYTE” value [3] of the same compound?
Its value is 6489.33 CELLS/uL.

And the “ABSOLUTE MONOCYTE” value [3]?
The value was 15.33 CELLS/uL.

And the “ABSOLUTE SEGMENTED NEUTROPHIL” value [3]?
The value was 433.33 CELLS/uL.

And the BASOPHIL [3]?
The BASOPHIL was 0%.

And the EOSINOPHIL [3]?
The EOSINOPHIL was 0.33%.

And the “ERYTHROCYTE COUNT” value [3]?
The value was 5.4 x10E6/uL.

What about the HEMATOCRIT [3] of the same compound?
The HEMATOCRIT was 33.3%.

What about the HEMOGLOBIN [3] of the same compound?
Its HEMOGLOBIN is 13.8 G/DL.

And the “LEUKOCYTE COUNT” value [3]?
The value was 6.97 x10E3/uL.

And the LYMPHOCYTE [3]?
Its LYMPHOCYTE is 93%.

What about the “MEAN CORPUSCULAR HEMOGLOBIN” value [3] of the same compound?
The value was 25.63 pg.

What about the “MEAN CORPUSCULAR HEMOGLOBIN CONCENTRATION” value [3] of the same compound?
Its value is 41.53 G/DL.

And the “MEAN CORPUSCULAR VOLUME” value [3]?
Its value is 61.73 fL.

And the MONOCYTE [3]?
The MONOCYTE was 0.33%.

And the NEUTROPHIL [3]?
The NEUTROPHIL was 6.33%.

And the “NUCLEATED RED BLOOD CELLS” value [3]?
The value was 0 /100WBC.

What about the “PLATELET COUNT” value [3] of the same compound?
The value was 546 x10E3/uL.

What about the “ALANINE AMINOTRANSFERASE” value [3] of the same compound?
Its value is 94.67 u/L.

What about the ALBUMIN [3] of the same compound?
Its ALBUMIN is 3.93 G/DL.

What about the “ALKALINE PHOSPHATASE” value [3] of the same compound?
Its value is 442.33 u/L.

What about the “ASPARTATE AMINOTRANSFERASE” value [3] of the same compound?
The value was 96.33 u/L.

And the “BLOOD UREA NITROGEN” value [3]?
The value was 14.33 mg/dL.

What about the “CARBON DIOXIDE” value [3] of the same compound?
The value was 26 mmol/L.

And the CHLORIDE [3]?
Its CHLORIDE is 96.33 MEQ/L.

What about the CHOLESTEROL [3] of the same compound?
Its CHOLESTEROL is 72.67 mg/dL.

And the “CREATINE PHOSPHOKINASE” value [3]?
Its value is 359.33 u/L.

And the CREATININE [3]?
Its CREATININE is 0.12 mg/dL.

And the GLUCOSE [3]?
Its GLUCOSE is 150 mg/dL.

And the “LACTATE DEHYDROGENASE” value [3]?
The value was 116.67 u/L.

What about the LIPASE [3] of the same compound?
Its LIPASE is 12 u/L.

What about the PHOSPHORUS [3] of the same compound?
The PHOSPHORUS was 10.9 mg/dL.

What about the POTASSIUM [3] of the same compound?
Its POTASSIUM is 5.56 MEQ/L.

What about the SODIUM [3] of the same compound?
Its SODIUM is 139.97 MEQ/L.

And the “TOTAL BILIRUBIN” value [3]?
The value was 0.2 mg/dL.

What about the “TOTAL PROTEIN” value [3] of the same compound?
The value was 5.53 G/DL.

And the “URIC ACID” value [3]?
The value was 0.7 mg/dL.
